Measurements taken from PMC10619691, “Effect of cyclic substituents on the anti-cancer activity and DNA interaction of ruthenium(II) bis-phenanthroline dipyridoquinoline” (Frontiers in Molecular Biosciences, 2023).

How the values were obtained:
[1] = system: DU145 prostate cancer; experiment: sulphorhodamine B (SRB) cytotoxicity assay; format: cell-based, human; settings: 72 h incubation, mean ± SEM
Procedure: (§1) The cytotoxicity profile of the ruthenium complexes […]-572, and POW-12A was assessed in various cancer cell lines, namely, human cervical cancer HeLa, prostate cancer cell line DU145, breast cancer cell line MDAMB231MB231, ovarian cancer cell line A2780, and cisplatin-resistant ovarian cancer cell line A2780-CP70, using the preferred screen of the National Cancer Institute, the sulphorhodamine (SRB) dye assay, and the trypan blue cell viability assay ([Skehan et al., 1990]; [Houghton et al., 2007]; [Strober, 2001]). To determine their selective toxicity profile, these complexes were also tested in a normal prostate cell line (PTN1A). From the similarity in chemical structures of the compounds, we deduced that a structure-activity relationship study will help elucidate key properties involved in the cytotoxic activity of this class of metal complexes. The sulphorhodamine B (SRB) assay was used to evaluate the cytotoxicity of each cancer line after treating them with the metal complexes in line with the previously established protocol ([Skehan et al., 1990]). A cell density of 3 × 10^4 cells/mL was treated with various concentrations (3, 10, 30, 50, and 100 μM) of each ruthenium complex by 1:200 dilutions of stock solutions (in DMSO) in culture media, using DMSO as a control. Then, 100 μL of the cell-drug suspension was added to the respective wells of a 96-well plate and incubated at 37°C for 72 h in a CO2-containing incubator. Following this, the cells were fixed using 25 ul of Carnoy's solution and left in the fridge (4°C) for 1 h. The plates were then rinsed with running water and tapped on paper to remove dead cells. The cells were then stained with 100 μL of sulphorhodamine B dye and left for 30 min, after which the dye was washed off using 1% acetic acid, and the plate was left to dry in the oven (60°C). The stained cells were then treated with 100 μL of Tris base (10 mM, pH 10) to solubilize the dye stain. Finally, the plates were analyzed using an Omega plate reader. Each assay was conducted in triplicate. % Cell response=Average of treated cells / Average of control cells x 100.

[2] = system: HeLa cervical cancer; experiment: sulphorhodamine B (SRB) cytotoxicity assay; format: cell-based, human; settings: 72 h incubation, mean ± SEM
Procedure: as §1

[3] = system: MDA-MB-231 (TNBC); experiment: sulphorhodamine B (SRB) cytotoxicity assay; format: cell-based, human; settings: 72 h incubation, mean ± SEM
Procedure: as §1

[4] = system: A280-CP70 cisplatin-resistant ovarian cancer; experiment: sulphorhodamine B (SRB) cytotoxicity assay; format: cell-based, human; settings: for IC50: SRB assay, 72 h incubation, mean ± SEM
Procedure: as §1

[5] = system: A2780 ovarian cancer; experiment: sulphorhodamine B (SRB) cytotoxicity assay; format: cell-based, human; settings: SRB assay, 72 h incubation; mean ± SEM
Procedure: as §1

[6] = system: PNT1A normal prostate; experiment: sulphorhodamine B (SRB) cytotoxicity assay; format: cell-based, human; settings: SRB assay, 72 h incubation; mean ± SEM
Procedure: as §1

[7] = system: various cell lines; experiment: epi-fluorescence nuclear staining (nuclear morphology); format: cell-based; settings: 72 h treatment, DAPI staining; cisplatin at 5 μM
Procedure: To assess the nuclear morphological changes caused by ruthenium complexes on the cell lines, the cells were stained using 4′,6-diamidino-2-phenylindole DAPI dye and analyzed under an EVOS epi-fluorescence microscope at a magnification of ×60 ([Lewandowska et al., 2013]). The protocol involves treating the cells with the complexes, culturing them in 6-well plates, and incubating them at 37°C for 72 h. The cells were then rinsed with PBS, trypsinized, and neutralized using culture media. The cells were then spun in a centrifuge at 2500 RPM for 3 min, and the supernatant was discarded. The cell pellet was then fixed with 15 μL of Carnoy’s solution, resuspended, and spread on a microscope slide. When the cells were dried, 2–3 drops of DAPI were dropped on the smear in the dark and covered with a slip. The slides were then viewed under the epi-fluorescence microscope, and the nuclei were characterized qualitatively. A total of 30 cells per slide were counted, and the number of cells with various nuclear morphologies was recorded. Cells were then classed as normal, chromatin-condensed, swollen, nuclear-condensed, and nuclear-fragmented cells based on their nuclear morphology.

[8] = system: HeLa cells; experiment: Annexin V apoptosis assay; format: cell-based, human
Procedure: To further analyze the cytotoxicity mechanisms, annexin V was used to determine whether VNK-572/cisplatin exerts an anti-cancer activity through apoptosis. The Annexin V assay was performed following the established procedure. The steps included treating the cells with the complex for 24, 48, and 72 h in 6-well plates and incubating at 37°C. The cells were then rinsed with PBS, trypsinized, and neutralized using culture media. The cells were then spun in the centrifuge at 2500 RPM for 3 min, and the supernatant was discarded. The cell pellet was then washed first with PBS and then with ×1 binding buffer. The cells were then suspended in approximately 1 mL of binding buffer (1–5 million cells), and approximately 100 ul of this suspension was stained with 5 μL of annexin V-APC dye for 15 min. The cells were then washed with binding buffer and resuspended in 200 μL of binding buffer before being stained with 5 ul of propidium iodide. The cells were then analyzed using a flow cytometer within 4 h.

[9] = system: DU145 cells; experiment: cell cycle analysis; format: cell-based, human; settings: DU145, after 72 h; control 1%
Procedure: (§2) The cell cycle of cervical HeLa and prostate DU145 cancer cells was studied after treatment with VNK-572 and cisplatin, respectively (Figure 3). VNK-572 and cisplatin both reduced the G2 population after 72 h compared to control (e.g., 16%–11% in Hela (p = 0.06) and from 17% to 2% in the DU145 cell line (p = 0.003) for VNK-572) (Figure 3A). […] The DU145 cells saw a decrease in both phases following 72 h of treatment—from 68% to 40% and from 11% to 5% for the G1 and S phases, respectively (Figure 3A).

[10] = system: HeLa cells; experiment: cell cycle analysis; format: cell-based, human
Procedure: as §2

[11] = system: HeLa cells; experiment: cellular localization by confocal fluorescence microscopy; format: cell-based, human; settings: 50 μM, 2 h incubation, co-localization with DAPI
Procedure: This was further confirmed by the co-localization of these complexes with a nuclear counterstain (DAPI) (Figure 2).
Fluorescence microscopy was used to study cellular localization. HeLa cells were seeded on autoclaved coverslips in the 6-well plate and incubated at 37°C for 48 h, after which the culture media were replaced with media containing VNK-572 (50 μM) and VNK-754 (50 μM), respectively, and further incubation was performed for 2 h. Following this, the cells were fixed with Carnoy’s solution and washed twice with PBS thereafter. Finally, the HeLa cells were counterstained with DAPI, and the seeded coverslips were inverted and placed on slides for examination. A Leica confocal microscope was used for the observation of the samples using a magnification of ×63.

[12] = partition coefficient (log P), shake-flask method; format: physicochemical; settings: phosphate buffered saline (pH 7.4) / 1-octanol
Description: The role of lipophilicity in the activity of ruthenium (II) polypyridyl complexes is one that has been extensively reported ([Notaro and Gasser, 2017]). […] Based on this, we carried out a partition coefficient (log P) test using a shake-flask method to determine whether the marginal structural differences between VNK-754, VNK-572, and POW-12A affect their lipophilicity and to examine whether such a difference in lipophilicity confers any advantage to their anti-cancer activity. The log P results, as presented in Table 2, clearly show VNK-572 (0.014) and POW-12A (0.077) to be more lipophilic than VNK-754 (−0.874). […] Thus, along with varied DNA intercalating properties, this explains, in part, why there are appreciable differences in the cytotoxic effects of VNK572 and POW12A compared to VNK-754, even though they are generally similar in structure. For example, VNK-572 with an additional benzene ring can penetrate the bi-lipid-layered cell membrane better and achieve higher cellular and nuclear concentrations than VNK-754, producing a greater anti-tumor effect.
To study the lipophilicity of our complexes, we used the shake-flask method at 25.0 °C ± 0.1°C in line with the previously reported protocol ([Dubey et al., 2017]). Equal volumes of the aqueous phase (phosphate buffered saline, pH 7.4) and the 1-octanol phase were pre-saturated with each other overnight. A known amount of the complexes (respectively) was added to the aqueous phase, ensuring our final concentration was within the range of UV spectroscopic analysis; then, an equal volume of the pre-saturated […] phase was added. Both phases were then mixed in a conical flask and left shaking on a thermostatic shaker at a speed of 100 rpm overnight at room temperature. […] Considering that lipophilic compounds will partition into the octanol phase, the concentration of the complexes left in the aqueous phase was analyzed, respectively, by UV spectroscopy; then, the Log P value was calculated: Logp = Log10 ([solute] un-ionized octanol/[solute] un-ionized water).

[13] = system: RF I φX174 supercoiled circular DNA; experiment: supercoiled DNA unwinding by atomic force microscopy; format: binding; settings: AFM; P/D = 14 for POW-12A and VNK-572, P/D = 5 for VNK-754
Procedure: FIGURE 7 AFM height images RF I φX174 on a magnesium-soaked mica surface over an area of 2 µm. Samples with the ruthenium complex had solution mixing ratios of P/D = 14 for POW-12A and VNK-572; and of P/D = 5 VNK-754.
Samples for atomic force microscopy (AFM) were prepared on mica crystals cut into squares of approximately 1 cm^2. These squares were stuck with double-sided tape to a 15-mm diameter metal disc. Before sample preparation, Cellotape was used to remove the top layer of the mica crystal, giving a freshly cleaved surface layer on which the sample is to be deposited. Mica was soaked in a 0.1 M solution of MgCl2 for 5 min and blown dry, and Mg^2+ was used to help DNA (negatively charged) adhere to the negatively charged surface of the mica. For solutions containing DNA and POW-12A or VNK-572, a P/D value of 14 was used. For the solution containing DNA and VNK-754, a P/D value of 5 was used. Then, 2 μL of the solution was pipetted onto the mica surface and left for 10 min until the solvent had evaporated, leaving the DNA adhered to the surface. To remove excess salt, each sample was washed three times with 10 µL nanopure water, drying with nitrogen after each wash. AFM was conducted using a Bruker Multi-mode 2 atomic force microscope operated with a NanoScope V controller. ScanAsyst-AIR AFM tips were purchased from Bruker. Scans were run in tapping mode using ScanAsyst, measuring height, peak force error, and phase. The spring constant was adjusted to the spring constant of the tip, which is 0.4 N m^−1 for ScanAsyst-AIR tips; feedback parameters were set automatically by ScanAsyst Auto. Scans were run over 2 μm^2 areas with 512 lines. Images were prepared using NanoScope analysis software. Raw data were processed using first-order flattening and third-order plane fitting. If the background required smoothening due to large molecules on the surface, first-order flattening with a threshold of Z < 0.05 nm was used to improve the appearance of the background. […]

Compound	IC50 [1] [µM]	IC50 [2] [µM]	IC50 [3] [µM]	IC50 [4] [µM]	resistance factor (IC50 A2780-CP70/IC50 A2780) ([4]; from SRB IC50 values)	IC50 [5] [µM]	IC50 [6] [µM]	nuclear morphology [7]	Q2 (propidium iodide and annexin V APC-stained cells), late-stage apoptosis ([8]; 72 h of treatment, control 2%) [%]	Q4 (annexin V APC), early apoptosis ([8]; 72 h of treatment, control 14% (VNK-572), 13% (cisplatin)) [%]	Q1 (necrosis) ([8]; after 72 h of treatment) [%]	sub-G1 population [9] [%]	changes in G1 / S phases [10]	sub-G1 population ([10]; 72 h of treatment, control 5% (VNK-572), 6% (cisplatin)) [%]	cellular localization [11]	LogP [12]	unwinding of supercoiled circular DNA [13]
N.N.[Cl][Pt][Cl] [Cisplatin, cisplatin, reference compound]	2.4 ± 0.09	6 ± 0.58	37 ± 8.08	4 ± 0.58	two-fold	2	3.8 ± 0.58	nuclear swelling	9	39	< 6	62	increase in S-phase arrest	25	–	–	–
F[P-](F)(F)(F)(F)F.F[P-](F)(F)(F)(F)F.[Ru+2].c1cnc2c(c1)c1cccnc1c1ncccc21.c1cnc2c(c1)ccc1cccnc12.c1cnc2c(c1)ccc1cccnc12 [VNK-754, ruthenium (II) bis-phenanthroline dipyridoquinoline]	> 100	> 100	> 100	> 100	–	74 ± 14.4	> 100	–	–	–	–	–	–	–	penetrate the nucleus	−0.874	unwound
